This note sets out measurements from patent US9650407B2, “Reprogramming of cellular adhesion” (The Regents of the University of California, priority 2011, dated 2017).

The test system of test [1] is heterogeneous MCF10ARas/MCF10AWT microtissues. Nature of the test: Emergent phenotypes in heterogeneous MCF10ARas/MCF10AWT microtissues in 3D lrECM culture. Format: cell-based. To be noted: over 24 hr in culture vs DMSO control; LY294002 20 μM, PD325901 200 nM, Sorafenib 10 μM, PIK-90 2 μM; DNase added immediately after sorting. The procedure:
Sorafenib was a gift from Kevan Shokat (UCSF0 and used at 10 μM. PIK-90 was purchased from Calbiochem and used at 2 μM. High activity DNase was purchased from Ambion. Ethidium homodimer-1 was purchased from Invitrogen and used at 1 μM.
The following antibodies were used for western blot: E-cadherin (BD Biosciences), tubulin (Sigma-Aldrich), phospho-Erk and phospho-Akt (Cell Signaling Technology), pan-Ras (Calbiochem), goat anti-mouse-HRP, and goat anti-rabbit-HRP (Thermo Scientific). The following antibodies were used for immunofluorescent staining: GM130, β-catenin (BD Biosciences), α6-integrin, laminin-5 (Millipore), cleaved caspase-3 (Cell Signaling Technology), Ki-67 (Sigma-Aldrich), gp135 (a gift from Keith Mostov, UCSF), Alexa Fluor 488- and 568-conjugated goat anti-mouse, anti-rat, and anti-rabbit antibodies (Invitrogen). F-actin was stained with Alexa Fluor 488- or 568-conjugated phalloidin (Invitrogen). LY294002 and PD325901 (Calbiochem) were used at 20 μM and 200 nM, respectively. TURBO DNase (Invitrogen) was used at a concentration of 10 U/ml.
Time-lapse images of aggregates were acquired on a Zeiss 200M inverted fluorescence microscope equipped with an XCite […] light source and a Hamamatsu camera. Field positions were programmed into Slidebook 5.0 software, and images were acquired at 30 min intervals. Samples were maintained in a humidified chamber at 37° C. and 5% CO2. Phenotypes were scored in Slidebook 5.0 software after acquisition. Microtissues that merged with other microtissues or single cells were not scored due to confounding effects on cell motility.
Apoptotic cells were excluded from phenotype quantification, as judged by cell morphology (FIG. 27, Panels A-E) or uptake of ethidium homodimer-1 (FIG. 28, Panels C, G, and H). Extruding microtis sues contained a single H2B-GFP-expressing cell pushed beyond the phase-bright boundary formed by the surrounding cells. Multicellular protrusions began with a single H2B-GFP-expressing cell that led the translation of the surrounding cells without becoming disconnected from the microtissue. H2B-GFP-expressing cells that broke away from tissues and moved alone were scored as protruding cells due to their altered morphology and motility.

Test [2] has as its system Jurkat cells. The test can be described thus: Time-lapse imaging of membrane dynamics of DNA-immobilized cells. Format: cell-based. To be noted: 1 uM latrunculin A; for membrane tubules from the cell surface: subsequent 100 uM nocodazole; for membrane microspikes: 100 uM nocodazole, 10 ng/mL PMA and 1.3 uM ionomycin. The procedure: Cells incorporating lipid-DNA were allowed to settle onto patterned glass within a PDMS-based flow cell for 30 minutes. Only cells hybridized to the surface via DNA were retained when the surface was washed with PBS. Patterned cells were imaged at 37° C. on a Zeiss Axiovert 200M at 200× or 400× magnification using phase contrast settings.
Cells were incubated with 1 uM latrunculin A either 10 (after nocodazole treatment) or 40 minutes prior to timelapse imaging. Cells were incubated with 10 ng/mL phorbol 12-myristate 13-acetate (PMA) and 1.3 uM ionomycin 4 hours prior to lipid incorporation. Cells were incubated with 100 uM nocodazole, with or without addition of latrunculin, 10 minutes prior to imaging.
Using ImageJ, cells were picked automatically from 20× fields of view and subsequently binarized. For each time point, scanning down the y-axis, the horizontal slice with the greatest width was identified. For each cell, the coefficient of variation was calculated for this set of widths, and this statistic was used to characterize each cell's membrane motility for binning. Error bars signify standard error.

Take `O=C(NOC[C@H](O)CO)c1ccc(F)c(F)c1Nc1ccc(I)cc1F` [PD325901]: in test [1], the “formation/frequency of motile multicellular protrusions” value (“formation/frequency” below) is “blocked” and the “frequency of basal extrusions” value was “blocked”.
With `COc1ccc2c(c1OC)N=C(NC(=O)c1cccnc1)N1CCN=C21` [PIK-90], in test [1], the “formation/frequency” value is “reduced” and the “frequency of basal extrusions” value is recorded as “slightly increasing”.
Consider `CNC(=O)c1cc(Oc2ccc(NC(=O)Nc3ccc(Cl)c(C(F)(F)F)c3)cc2)ccn1` [Sorafenib], for which, in test [1], the “formation/frequency” value was “blocked” and the “frequency of basal extrusions” value was “blocked”.
For `C/C1=C/C(=O)O[C@@H]2C[C@@H](CC[C@H](C)/C=C\C=C\CC1)O[C@@](O)([C@@H]1CSC(=O)N1)C2` [latruncluin A, latrunculin A], in test [2], the “membrane tubules from the cell surface” value is given as “rapid growth of long tubules” and the membrane microspikes result is “blocked the formation”.
With `COC(=O)Nc1nc2ccc(C(=O)c3cccs3)cc2[nH]1` [nocodazole], in test [2], the “membrane tubules from the cell surface” value is “retraction of the membrane tubules” and the membrane microspikes entry is listed as “completely blocked”.
